Literature values in patent US9050475B2, “High SPF sunscreen compositions” (MD SOLARSCIENCES CORP., priority 2010, dated 2015).

Details: known UV-A or UV-B protection properties of FDA-approved sunscreens

CCCCC(CC)COC(=O)C(C#N)=C(c1ccccc1)c1ccccc1 (stereo not shown) [Octocrylene, 2-ethylhexyl-2-cyano-3.3 diphenylacrylate]
Range Covered: UV-B (UV-B: 290-320 nm)

CC1CC(OC(=O)c2ccccc2O)CC(C)(C)C1 (stereo not shown) [Homosalate]
Range Covered: UV-B (UV-B: 290-320 nm)

COc1ccc(C(=O)c2ccccc2)c(O)c1 [Oxybenzone]
Range Covered: UV-B, UV-A2

CCCCC(CC)COC(=O)c1ccc(N(C)C)cc1 (stereo not shown) [Padimate O, octyl dimethyl PABA]
Range Covered: UV-B (UV-B: 290-320 nm)

CCOCCOC(=O)C=Cc1ccc(OC)cc1 [Cinoxate, 2-ethoxyethylp-methoxycinnamate]
Range Covered: UV-B (UV-B: 290-320 nm)

CCCCC(CC)COC(=O)c1ccccc1O (stereo not shown) [Octisalate, 2-ethylhexyl salicylate]
Range Covered: UV-B (UV-B: 290-320 nm)

COc1cc(O)c(C(=O)c2ccccc2)cc1S(=O)(=O)O [Sulisobenzone]
Range Covered: UV-B, UV-A2
